pIC50: −log10 of the molar value.
Molecular target: T1, Axl (Homo sapiens, UniProt P30530)
T1 construct: endogenous in cells; host or cells: HeLa cells
T1 sequence (P30530 26-894): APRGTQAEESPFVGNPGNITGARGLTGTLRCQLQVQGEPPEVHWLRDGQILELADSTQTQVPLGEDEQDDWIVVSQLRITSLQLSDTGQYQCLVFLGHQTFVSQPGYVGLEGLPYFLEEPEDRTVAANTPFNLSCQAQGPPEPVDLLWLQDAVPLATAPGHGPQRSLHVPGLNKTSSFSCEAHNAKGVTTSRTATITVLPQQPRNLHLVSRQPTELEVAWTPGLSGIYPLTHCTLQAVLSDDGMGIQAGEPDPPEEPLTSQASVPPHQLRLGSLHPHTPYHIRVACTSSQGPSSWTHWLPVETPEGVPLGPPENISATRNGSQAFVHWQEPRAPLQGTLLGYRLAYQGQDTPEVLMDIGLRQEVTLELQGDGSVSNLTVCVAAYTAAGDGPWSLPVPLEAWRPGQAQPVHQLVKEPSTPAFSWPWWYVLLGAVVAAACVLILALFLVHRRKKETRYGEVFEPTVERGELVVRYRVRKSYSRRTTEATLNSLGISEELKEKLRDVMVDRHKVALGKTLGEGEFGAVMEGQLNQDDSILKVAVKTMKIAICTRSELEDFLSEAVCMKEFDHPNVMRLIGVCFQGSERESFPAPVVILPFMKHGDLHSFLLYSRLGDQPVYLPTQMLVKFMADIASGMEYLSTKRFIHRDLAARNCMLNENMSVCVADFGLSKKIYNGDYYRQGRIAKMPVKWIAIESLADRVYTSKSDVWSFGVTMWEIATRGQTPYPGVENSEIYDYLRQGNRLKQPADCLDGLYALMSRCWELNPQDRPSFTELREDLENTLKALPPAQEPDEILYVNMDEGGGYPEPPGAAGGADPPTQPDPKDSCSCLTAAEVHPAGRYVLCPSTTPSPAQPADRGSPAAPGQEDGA
Experiment: Phospho-Akt in-cell Western assay
Assay type: cell-based
Details: Hela cells, stimulated by Axl-antibody cross-linking, phospho-Akt chemiluminescence; Table 1, formula (Ia)
How it was run: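 HeLa cells on poly-L-lysine, starved 24 h in 0.5% FCS with 500 ng/mL Axl/Fc, pre-treated with compound 1 hr at 37° C, then stimulated 5 min by cross-linked anti-Axl antibody clusters. Fixed cells probed for phospho-Akt by in-cell Western with HRP chemiluminescence, read within 10 min.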

pIC50 | SMILES
> 6.00 | CCN(CC)[C@H]1CCc2ccc(Nc3nc(N)n(-c4cc5c(nn4)-c4cccnc4CCC5)n3)cc2CC1 [Compound 48, 1-(6,7-dihydro-5H-pyrido[2′,3′:6,7]cyclohepta[1,2-c]pyridazin-3-yl)-N^3-((7S)-7-(diethylamino)-6,7,8,9-tetrahydro-5H-benzo[7]annulene-2-yl)-1H-1,2,4-triazole-3,5-diamine]
> 6.00 | CCCN(CCC)[C@H]1CCc2ccc(Nc3nc(N)n(-c4cc5c(nn4)-c4cccnc4CCC5)n3)cc2CC1 [Compound 49, 1-(6,7-dihydro-5H-pyrido[2′,3′:6,7]cyclohepta[1,2-c]pyridazin-3-yl)-N^3-((7S)-7-(dipropylamino)-6,7,8,9-tetrahydro-5H-benzo[7]annulene-2-yl)-1H-1,2,4-triazole-3,5-diamine]
5.00 to 6.00 | CC(C)CCN(CCC(C)C)[C@H]1CCc2ccc(Nc3nc(N)n(-c4cc5c(nn4)-c4cccnc4CCC5)n3)cc2CC1 [Compound 51, 1-(6,7-dihydro-5H-pyrido[2′,3′:6,7]cyclohepta[1,2-c]pyridazin-3-yl)-N^3-((7S)-7-(di(3-methylbutyl)amino)-6,7,8,9-tetrahydro-5H-benzo[7]annulene-2-yl)-1H-1,2,4-triazole-3,5-diamine]
> 6.00 | CC(C)N[C@H]1CCc2ccc(Nc3nc(N)n(-c4cc5c(nn4)-c4cccnc4CCC5)n3)cc2CC1 [Compound 54, 1-(6,7-dihydro-5H-pyrido[2′,3′:6,7]cyclohepta[1,2-c]pyridazin-3-yl)-N^3-((7S)-7-((methylethyl)amino)-6,7,8,9-tetrahydro-5H-benzo[7]annulene-2-yl)-1H-1,2,4-triazole-3,5-diamine]

Continued, compound first:

SMILES | pIC50
Nc1nc(Nc2ccc3c(c2)CC[C@@H](N(CC2CC2)CC2CC2)CC3)nn1-c1cc2c(nn1)-c1cccnc1CCC2 [Compound 50, 1-(6,7-dihydro-5H-pyrido[2′,3′:6,7]cyclohepta[1,2-c]pyridazin-3-yl)-N^3-((7S)-7-(di(cyclopropylmethyl)amino)-6,7,8,9-tetrahydro-5H-benzo[7]annulene-2-yl)-1H-1,2,4-triazole-3,5-diamine] | > 6.00
Nc1nc(Nc2ccc3c(c2)CC[C@@H](NC2CCC2)CC3)nn1-c1cc2c(nn1)-c1cccnc1CCC2 [Compound 52, 1-(6,7-dihydro-5H-pyrido[2′,3′:6,7]cyclohepta[1,2-c]pyridazin-3-yl)-N^3-((7S)-7-(cyclobutylamino)-6,7,8,9-tetrahydro-5H-benzo[7]annulene-2-yl)-1H-1,2,4-triazole-3,5-diamine] | > 6.00
Nc1nc(Nc2ccc3c(c2)CC[C@@H](NC2CCCCC2)CC3)nn1-c1cc2c(nn1)-c1cccnc1CCC2 [Compound 53, 1-(6,7-dihydro-5H-pyrido[2′,3′:6,7]cyclohepta[1,2-c]pyridazin-3-yl)-N^3-((7S)-7-(cyclohexylamino)-6,7,8,9-tetrahydro-5H-benzo[7]annulene-2-yl)-1H-1,2,4-triazole-3,5-diamine] | > 6.00
